Each structure is given as a SMILES string. Structures can show the parent of a compound that is named as a salt.

The target in one series is T1, CRF1 receptor (Homo sapiens, UniProt P34998).
T1 construct: Cell membranes are prepared according the method of Dieterich and DeSouza (1996); endogenous in cells; host or cells: IMR-32 human neuroblastoma cells (membrane preparation)
T1 sequence (P34998 24-415): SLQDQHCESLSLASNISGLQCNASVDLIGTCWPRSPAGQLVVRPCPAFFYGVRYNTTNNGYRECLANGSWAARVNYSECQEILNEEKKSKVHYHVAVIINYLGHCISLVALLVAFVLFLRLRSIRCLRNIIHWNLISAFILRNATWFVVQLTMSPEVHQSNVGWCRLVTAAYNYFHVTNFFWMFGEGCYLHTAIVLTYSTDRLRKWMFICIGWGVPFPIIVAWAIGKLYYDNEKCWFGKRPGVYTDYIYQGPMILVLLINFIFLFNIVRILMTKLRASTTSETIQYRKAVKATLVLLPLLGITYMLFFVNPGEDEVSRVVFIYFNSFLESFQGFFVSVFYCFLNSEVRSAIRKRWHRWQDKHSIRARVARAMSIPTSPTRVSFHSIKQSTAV
The experiment in a line: CRF1 Receptor Binding Assay. The following applies: competition binding with [125I]Tyr0-ovine CRF, human IMR-32 neuroblastoma cell membranes; pKi derived from pIC50. Here is the method:
CRF1 Receptor Binding Assay
Human IMR-32 neuroblastoma cells are grown to 80% confluence in MEM medium containing 10% heat-inactivated FBS, lmM Sodium Pyruvate, and 0.1 mM nonessential amino acids. Cell membranes are prepared according the method of Dieterich and DeSouza (1996). The cells (˜5E+9) are resuspended in 10 volumes of wash buffer (5 mM Tris HCl, 10 mM MgCl2, 2 mM EGTA, pH 7.4 at RT), homogenized with a Polytron, and then centrifuged at 45,000 G for 20 min at 4° C. The membrane pellets are washed twice with wash buffer (45,000 G for 20 min at 4° C.) and then resuspended (50 mM Tris HCl, 10 mM MgCl2, 2 mM EGTA, pH 7.4 at RT). Protein concentration is determined using Pierce reagents and BSA as standard. Aliquots of 1-1.5 mL are stored at −80° C. until binding assay.
The competition binding assay is performed in a final volume of 250 μl, which contains assay buffer (50 mM Tris-HCl, 10 mM MgCl2, 2 mM EGTA, 0.2% BSA, 0.1 mM bacitracin and 100 kIU/mL aprotinin pH 7.2 at R.T.), 0.05 nM [^125I]Tyr^0-ovine CRF (Du Pont New England Nuclear), 50 μg of membrane protein, and test compound at various concentrations. Non-specific binding is determined with 1 uM hCRF. Binding reactions are terminated after 2 hr incubation at 25° C. by filtering through 96-w GF/C filter plate using a Packard Harvester (Filtermate 196). The 96-w filter plate is pre-treated with 0.3% polyethyleneimine and pre-washed with washing buffer (50 mM Tris-HCl, 10 mM MgCl2, 2 mM EGTA, 0.2% BSA, pH 7.2 at 4° C.). Unbound radioactivity is removed by four rapid washes (0.8 ml/well) with wash buffer. The radioactivity is quantified using a Packard TopCount. Data are analyzed using non-linear iterative curve fitting to obtain IC50 and Hill slope values. PKi values are derived from pIC50 values (−log of IC50).

For the compound `Cc1ccn(-c2cc(Nc3c(Cl)cc(Cl)cc3Cl)nc(C)n2)n1` (as salt: hydrochloride) [[2-Methyl-6-(3-methyl-pyrazol-1-yl)-pyrimidin-4-yl]-(2,4,6-trichloro-phenyl)-amine], the melting point (as a rule, the temperature of the solid-liquid transition) was 245 to 247 °C. Regarding `CCCc1ccn(-c2nc(C)nc(Nc3c(Cl)cc(Cl)cc3Cl)c2C)n1` [[2,5-Dimethyl-6-(3-propyl-pyrazol-1-yl)-pyrimidin-4-yl]-(2,4,6-trichloro-phenyl)-amine], at CRF1 receptor, the affinity, expressed as Ki, was 1620 nM.

For the compound `Cc1ccn(-c2cc(Nc3c(Cl)cc(Cl)cc3Cl)nc(C)n2)n1` [[2-Methyl-6-(3-methyl-pyrazol-1-yl)-pyrimidin-4-yl]-(2,4,6-trichloro-phenyl)-amine], the Ki – broadly, the dissociation constant of the complex between target and ligand, obtained from inhibition or displacement – on CRF1 receptor is 1070 nM. On to `Cc1cn(-c2nc(C)nc(Nc3c(Cl)cc(Cl)cc3Cl)c2Cl)cn1` [[5-Chloro-2-methyl-6-(4-methyl-imidazol-1-yl)-pyrimidin-4-yl]-(2,4,6-trichloro-phenyl)-amine], for which, on CRF1 receptor, the affinity, expressed as Ki, was 1910 nM.

The values are drawn from US7414059B2, “Pyrazolyl and imidazolyl pyrimidines as CRF antagonists” (Roche Palo Alto LLC, priority 2003, dated 2008).
